Patent US10123995B2, “Factor XIa inhibitors” (MERCK SHARP & DOHME CORP., priority 2015, dated 2018)

Columns and labels:
[1] = biological target: purified Human plasma kallikrein (Homo sapiens (Human), UniProt P03952); test: Kallikrein Assay; format: biochemical; details: table titled Kalikrein inhibition (column head prints hFXIa), substrate Acetyl-K-P-R-AFC, pH 7.4
Procedure: (§1) The effectiveness of a compound of the present invention as an inhibitor of Kallikrein can be determined using a relevant purified serine protease, and an appropriate synthetic substrate. The rate of hydrolysis of the chromogenic or fluorogenic substrate by the relevant serine protease was measured both in the absence and presence of compounds of the present invention. Assays were conducted at room temperature or at 37° C. […] A decrease in the rate of fluorescence change in the presence of inhibitor is indicative of enzyme inhibition. Such methods are known to one skilled in the art. The results of this assay are expressed as the inhibitory constant, Ki.
Kallikrein determinations were made in 50 mM HEPES buffer at pH 7.4 containing 150 mM NaCl, 5 mM CaCl2, and 0.1% PEG 8000 (polyethylene glycol; Fisher Scientific). Determinations were made using purified Human plasma kallikrein at a final concentration of 0.5 nM (Enzyme Research Laboratories) and the synthetic substrate, Acetyl-K-P-R-AFC (Sigma # C6608) at a concentration of […].
Activity assays were performed by diluting a stock solution of substrate at least tenfold to a final concentration ≤0.2 Km into a solution containing enzyme or enzyme equilibrated with inhibitor. Times required to achieve equilibration between enzyme and inhibitor were determined in control experiments. The reactions were performed under linear progress curve conditions and fluorescence increase measured at 405 Ex/510 Em nm. Values were converted to percent inhibition of the control reaction (after subtracting 100% Inhibition value). IC50 was determined by inflection point from a four parameter logistic curve fit. Ki was calculated using the Cheng Prusoff equation, Ki=IC50/(1+([S]/Km)).

[2] = biological target: purified human Factor XIa (Homo sapiens (Human), UniProt P03951); test: Factor XIa Assay; format: biochemical; details: Factor XIa inhibition; substrate Z-Gly-Pro-Arg-AFC, pH 7.4; read-out: hFXIa IC50
Procedure: as §1, with “Coagulation Factor XIa” for “Kallikrein”, “The results of this assay are expressed as the inhibitory constant, Ki.” left out
Factor XIa determinations were made in 50 mM HEPES buffer at pH 7.4 containing 150 mM NaCl, 5 mM CaCl2, and 0.1% PEG 8000 (polyethylene glycol; JT Baker or Fisher Scientific). Determinations were made using purified human Factor XIa at a final concentration of 40 pM (Sekisui Diagnostics) and the synthetic substrate, Z-Gly-Pro-Arg-AFC, TFA salt (Sigma #C0980) at a concentration of 100 μM.
Activity assays were performed by diluting a stock solution of substrate at least tenfold to a final concentration ≤0.1 Km into a solution containing enzyme or enzyme equilibrated with inhibitor. Times required to achieve equilibration between enzyme and inhibitor were determined in control experiments. Initial velocities of product formation in the absence (Vo) or presence of inhibitor (Vi) were measured. Assuming competitive inhibition, and that unity is negligible compared Km/[S], [I]/e, and [I]/e (where [S], [I], and e respectively represent the total concentrations, of substrate, inhibitor and enzyme), the equilibrium constant (Ki) for dissociation of the inhibitor from the enzyme can be obtained from the dependence of Vo/Vi on [I] shown in the following equation. Vo/Vi=1+[I]/Ki

purified Human plasma kallikrein, sequence (P03952 391-638): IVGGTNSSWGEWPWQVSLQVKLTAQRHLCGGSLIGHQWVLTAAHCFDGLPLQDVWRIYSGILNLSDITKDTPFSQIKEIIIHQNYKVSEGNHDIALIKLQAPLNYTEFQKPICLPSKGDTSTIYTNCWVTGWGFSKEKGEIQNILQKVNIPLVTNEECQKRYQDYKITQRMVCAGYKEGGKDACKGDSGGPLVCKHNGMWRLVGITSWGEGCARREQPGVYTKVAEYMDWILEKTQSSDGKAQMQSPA
purified Human plasma kallikrein, sequence (P03952 20-390 partner): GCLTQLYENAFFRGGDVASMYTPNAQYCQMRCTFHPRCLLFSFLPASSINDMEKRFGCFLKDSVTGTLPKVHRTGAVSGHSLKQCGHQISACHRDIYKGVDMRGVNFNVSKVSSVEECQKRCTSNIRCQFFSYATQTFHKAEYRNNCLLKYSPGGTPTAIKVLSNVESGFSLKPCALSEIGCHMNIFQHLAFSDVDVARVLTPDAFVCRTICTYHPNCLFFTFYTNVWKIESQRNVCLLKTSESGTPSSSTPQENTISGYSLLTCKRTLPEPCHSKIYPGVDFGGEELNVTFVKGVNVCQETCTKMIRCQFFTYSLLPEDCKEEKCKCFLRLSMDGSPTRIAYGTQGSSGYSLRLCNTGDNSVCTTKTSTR
purified human Factor XIa, sequence (P03951 388-625): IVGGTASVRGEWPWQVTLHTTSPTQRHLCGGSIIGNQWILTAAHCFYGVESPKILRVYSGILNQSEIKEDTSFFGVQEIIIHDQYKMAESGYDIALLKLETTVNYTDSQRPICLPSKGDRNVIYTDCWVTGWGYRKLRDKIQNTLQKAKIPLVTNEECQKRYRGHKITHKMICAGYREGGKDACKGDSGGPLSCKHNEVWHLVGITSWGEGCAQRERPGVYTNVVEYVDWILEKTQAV
purified human Factor XIa, sequence (P03951 19-387 partner): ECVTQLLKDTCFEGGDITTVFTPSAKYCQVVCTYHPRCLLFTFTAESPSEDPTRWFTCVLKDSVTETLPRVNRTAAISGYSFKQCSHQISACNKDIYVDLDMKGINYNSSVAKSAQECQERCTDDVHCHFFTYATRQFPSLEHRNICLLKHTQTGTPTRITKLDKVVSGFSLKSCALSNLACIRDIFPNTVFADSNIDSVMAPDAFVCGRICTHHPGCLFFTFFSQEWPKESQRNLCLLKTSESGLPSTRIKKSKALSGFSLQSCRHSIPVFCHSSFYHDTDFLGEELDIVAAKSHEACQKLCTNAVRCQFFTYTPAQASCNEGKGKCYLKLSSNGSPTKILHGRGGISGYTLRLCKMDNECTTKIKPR

O=C(O)c1ccc(NC(=O)C2(O)CCc3cc(-c4cc(Cl)ccc4-n4cnnn4)c[n+]([O-])c32)cc1 (centres unmarked) [Example 19, 4-[({3-[5-Chloro-2-(1H-tetrazol-1-yl)phenyl]-7-hydroxy-1-oxido-6,7-dihydro-5H-cyclopenta[b]pyridin-7-yl}carbonyl)amino]benzoic acid]
IC50 [1]: 1370 nM
IC50 [2]: 6 nM
